Test results reported in US20250136553A1, “ACYLSULFONAMIDE KAT6A INHIBITORS” (Olema Pharmaceuticals, Inc., priority 2023, published 2025).

Biological target: human-KAT6A (MYST domain 507-778 aa) (Homo sapiens (Human), UniProt Q92794)
Assay: KAT6A biochemical assay (TR-FRET)
Conditions: @ 10 μM; reported where IC50 could not be determined; read-out: Percent inhibition at specific concentration (KAT6A)
Text: TR-FRET based methods were used for assaying compounds of the present invention for KAT6A enzyme inhibitory activity. TR-FRET is a homogeneous proximity assay where Europium-labelled anti-acetyl lysine antibody binds to the acetylated substrate labelled with biotin, which in turn binds to streptavidin-labelled APC fluorescence acceptor. Europium can transfer energy to APC in the complex and the interaction of two dye-labelled binding partners is detected by the energy transfer between a donor and an acceptor dye and the subsequent light emission by the acceptor dye. KAT6A transfer an acetyl group from acetyl CoA to lysine amino acids of histones/target proteins. […] The selected compound of the present invention and enzyme are incubated for 30 min on plate shaker at 300 rpm at 25° C. Next, 5 μL of substrate mix containing histone H4 peptide and acetyl-CoA in assay buffer is added to the plate. The final concentrations of H4 peptide and acetyl-CoA are 200 nM and 600 nM, respectively. Following 60 min reaction at 25° C. on plate shaker at 300 rpm, 5 μL of detection mix containing Europium-labelled anti-acetyl antibody and streptavidin-APC is added to the reaction wells. The plate is further incubated at 25° C. on shaker at 300 rpm and is read in TR-FRET mode (Ex:340 nm; Em: 615 nm and 665 nm) on a plate reader to achieve ˜5-7-fold activity. The percent inhibition was calculated from the ratio of the fluorescence (FL) intensities [(F665/F615)×10000) using the formula […]. IC50 values of the compounds were determined by fitting the dose-response data to sigmoidal curve fitting equation using Graph pad prism software V9.

human-KAT6A (MYST domain 507-778 aa), sequence (Q92794 507-778): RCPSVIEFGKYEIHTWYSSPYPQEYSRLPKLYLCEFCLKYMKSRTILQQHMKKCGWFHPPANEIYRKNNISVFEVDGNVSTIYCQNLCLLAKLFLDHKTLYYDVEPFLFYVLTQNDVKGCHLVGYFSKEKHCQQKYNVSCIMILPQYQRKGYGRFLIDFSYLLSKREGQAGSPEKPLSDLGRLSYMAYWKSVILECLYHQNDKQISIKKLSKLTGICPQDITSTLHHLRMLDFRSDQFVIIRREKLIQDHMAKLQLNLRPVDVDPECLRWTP

inhibition at 10 µM	Compound
26%	COc1cc(Cn2cccn2)cc(C(=O)NS(=O)(=O)c2c(OC)cccc2OC)c1 [Compound 6, 3-((1H-pyrazol-1-yl)methyl)-N-((2,6-dimethoxyphenyl)sulfonyl)-5-methoxybenzamide]
13%	COc1ccc(Cn2cccn2)cc1C(=O)NS(=O)(=O)c1cc(C(C)(C)C)ccc1OC [Compound 9, 5-((1H-pyrazol-1-yl)methyl)-N-((5-(tert-butyl)-2-methoxyphenyl)sulfonyl)-2-methoxybenzamide]

Same assay, conditions: KAT6A IC50 (nM), TR-FRET; histone H4 peptide 200 nM, acetyl-CoA 600 nM

Compound	IC50
COc1cc(C(=O)NS(=O)(=O)c2c(OC)cccc2OC)ccc1Cn1cccn1 [Compound 14, 4-((1H-pyrazol-1-yl)methyl)-N-((2,6-dimethoxyphenyl)sulfonyl)-3-methoxybenzamide]	7 nM

Same assay, conditions: TR-FRET; histone H4 peptide 200 nM, acetyl-CoA 600 nM; read-out: KAT6A IC50

Compound	IC50
5-((1H-pyrazol-1-yl)methyl)-N-((5-(tert-butyl)-2-methoxyphenyl)sulfonyl)-4-methoxypyrimidine-2-carboxamide [Compound 264]	12 nM
COc1cc(Cn2cccn2)ccc1C(=O)NS(=O)(=O)c1ccccc1OC [Compound 2, 4-((1H-pyrazol-1-yl)methyl)-2-methoxy-N-((2-methoxyphenyl)sulfonyl)benzamide]	741 nM
COc1cc(Cn2cccn2)ccc1C(=O)NS(=O)(=O)c1cc(C(C)(C)C)ccc1OC [Compound 4]	82 nM
COc1cc(Cn2cccn2)ccc1C(=O)NS(=O)(=O)c1cc2c(cc1OC)CCC2 [Compound 5, 4-((1H-pyrazol-1-yl)methyl)-2-methoxy-N-((6-methoxy-2,3-dihydro-1H-inden-5-yl)sulfonyl)benzamide]	178 nM
COc1ccc(C(C)(C)C)cc1S(=O)(=O)NC(=O)c1ccc(Cn2cccn2)cc1F [Compound 7, 4-((1H-pyrazol-1-yl)methyl)-N-((5-(tert-butyl)-2-methoxyphenyl)sulfonyl)-2-fluorobenzamide]	99 nM
COc1cc(Cn2cccn2)ccc1C(=O)NS(=O)(=O)c1ccc(-n2cccn2)cc1OC [Compound 10, 4-((1H-pyrazol-1-yl)methyl)-2-methoxy-N-((2-methoxy-4-(1H-pyrazol-1-yl)phenyl)sulfonyl)benzamide]	1480 nM
COc1cc(Cn2cccn2)ccc1C(=O)NS(=O)(=O)c1ccc(C(C)(C)C)cc1OC [Compound 11, 4-((1H-pyrazol-1-yl)methyl)-N-((4-(tert-butyl)-2-methoxyphenyl)sulfonyl)-2-methoxybenzamide]	500 nM
COc1ccc(C(C)(C)C)cc1S(=O)(=O)NC(=O)c1ccc(Cn2cccn2)c(F)c1 [Compound 13, 4-((1H-pyrazol-1-yl)methyl)-N-((5-(tert-butyl)-2-methoxyphenyl)sulfonyl)-3-fluorobenzamide]	47 nM
COc1cc(C(=O)NS(=O)(=O)c2c(OC)cccc2OC)ccc1Cn1cccn1 [Compound 14, 4-((1H-pyrazol-1-yl)methyl)-N-((2,6-dimethoxyphenyl)sulfonyl)-3-methoxybenzamide]	32 nM
COc1cc(Cn2cccn2)ccc1C(=O)NS(=O)(=O)c1cc2c(cc1OC)CCCC2 [Compound 15, 4-((1H-pyrazol-1-yl)methyl)-2-methoxy-N-((3-methoxy-5,6,7,8-tetrahydronaphthalen-2-yl)sulfonyl)benzamide]	576 nM
COc1ccc(C(C)(C)C)cc1S(=O)(=O)NC(=O)c1ccc(Cn2cccn2)c(Br)c1 [Compound 16, 4-((1H-pyrazol-1-yl)methyl)-3-bromo-N-((5-(tert-butyl)-2-methoxyphenyl)sulfonyl)benzamide]	26 nM
COc1ccc(C(C)(C)C)cc1S(=O)(=O)NC(=O)c1ccc(Cn2cccn2)c(C2CC2)c1 [Compound 17, 4-((1H-pyrazol-1-yl)methyl)-N-((5-(tert-butyl)-2-methoxyphenyl)sulfonyl)-3-cyclopropylbenzamide]	20 nM
COc1ccc(C(C)(C)C)cc1S(=O)(=O)NC(=O)c1ccc(Cn2cccn2)c(C#N)c1 [Compound 18]	70 nM
COc1ccc(C(C)(C)C)cc1S(=O)(=O)NC(=O)c1ccc(Cn2cccn2)c(C)c1 [Compound 20, 4-((1H-pyrazol-1-yl)methyl)-N-((5-(tert-butyl)-2-methoxyphenyl)sulfonyl)-3-methylbenzamide]	39 nM
COc1cc(C(=O)NS(=O)(=O)c2ccccc2-c2ccccc2)ccc1Cn1cccn1 [Compound 22, 4-((1H-pyrazol-1-yl)methyl)-N-([1,1′-biphenyl]-2-ylsulfonyl)-3-methoxybenzamide]	49 nM
COc1ccc(C(C)(C)C)cc1S(=O)(=O)NC(=O)c1ccc(Cn2cccn2)c(C(F)(F)F)c1 [Compound 25, 4-((1H-pyrazol-1-yl)methyl)-N-((5-(tert-butyl)-2-methoxyphenyl)sulfonyl)-3-(trifluoromethyl)benzamide]	10 nM
COc1cc(C(=O)NS(=O)(=O)c2cc3c(cc2OC)CCC3)ccc1Cn1cccn1 [Compound 27, 4-((1H-pyrazol-1-yl)methyl)-3-methoxy-N-((6-methoxy-2,3-dihydro-1H-inden-5-yl)sulfonyl)benzamide]	12 nM

Next, values leading:

IC50	Compound
35 nM	CCOc1cccc(OC)c1S(=N)(=O)NC(=O)c1ccc(Cn2cccn2)c(OC)n1 (racemic) [Compound 294, 5-((1H-pyrazol-1-yl)methyl)-N-(2-ethoxy-6-methoxyphenylsulfonimidoyl)-6-methoxypicolinamide]
39 nM	COc1ccc(C(C)(C)O)cc1S(=N)(=O)NC(=O)c1ccc(Cn2cccn2)c(OC)n1 (racemic) [Compound 297, 5-((1H-pyrazol-1-yl)methyl)-N-(5-(2-hydroxypropan-2-yl)-2-methoxyphenylsulfonimidoyl)-6-methoxypicolinamide]
25 nM	COc1cc(OC)c(S(=N)(=O)NC(=O)c2ccc(Cn3cccn3)c(OC)c2)c(OC)c1 (racemic) [Compound 299, 4-((1H-pyrazol-1-yl)methyl)-3-methoxy-N-(2,4,6-trimethoxyphenylsulfonimidoyl)benzamide]
17 nM	COc1cccc(OC)c1S(=N)(=O)NC(=O)c1ccc(Cn2cccn2)c(OC)n1 (single isomer, unassigned) [Compound 243a]
82 nM	COc1cccc(OC)c1S(=N)(=O)NC(=O)c1ccc(Cn2cccn2)c(OC)n1 (single isomer, unassigned) [Compound 243b]
247 nM	COc1cc(Cn2cccn2)ccc1C(=O)NS(=O)(=O)c1c(OC)cccc1OC [Compound 1, 4-((1H-pyrazol-1-yl)methyl)-N-((2,6-dimethoxyphenyl)sulfonyl)-2-methoxybenzamide]
137 nM	CCc1ccc(OC)c(S(=O)(=O)NC(=O)c2ccc(Cn3cccn3)cc2OC)c1 [Compound 3, 4-((1H-pyrazol-1-yl)methyl)-N-((5-ethyl-2-methoxyphenyl)sulfonyl)-2-methoxybenzamide]
17 nM	COc1cc(C(=O)NS(=O)(=O)c2ccc(C(C)(C)C)cc2OC)ccc1Cn1cccn1 [Compound 8, 4-((1H-pyrazol-1-yl)methyl)-N-((4-(tert-butyl)-2-methoxyphenyl)sulfonyl)-3-methoxybenzamide]
48 nM	COc1cccc(OC)c1S(=O)(=O)NC(=O)c1ccc(Cn2cccn2)c(F)c1 [Compound 12, 4-((1H-pyrazol-1-yl)methyl)-N-((2,6-dimethoxyphenyl)sulfonyl)-3-fluorobenzamide]
42 nM	COc1cc(C(=O)NS(=O)(=O)c2cc(-n3cccn3)ccc2OC)ccc1Cn1cccn1 [Compound 19, 4-((1H-pyrazol-1-yl)methyl)-3-methoxy-N-((2-methoxy-5-(1H-pyrazol-1-yl)phenyl)sulfonyl)benzamide]
28 nM	CCOc1cc(C(=O)NS(=O)(=O)c2cc(C(C)(C)C)ccc2OC)ccc1Cn1cccn1 [Compound 21, 4-((1H-pyrazol-1-yl)methyl)-N-((5-(tert-butyl)-2-methoxyphenyl)sulfonyl)-3-ethoxybenzamide]
32 nM	COc1cc(C(=O)NS(=O)(=O)c2cccc(O)c2)ccc1Cn1cccn1 [Compound 23, 4-((1H-pyrazol-1-yl)methyl)-N-((3-hydroxyphenyl)sulfonyl)-3-methoxybenzamide]
12 nM	COc1cc(C(=O)NS(=O)(=O)c2cc(Br)ccc2OC)ccc1Cn1cccn1 [Compound 24, 4-((1H-pyrazol-1-yl)methyl)-N-((5-bromo-2-methoxyphenyl)sulfonyl)-3-methoxybenzamide]
25 nM	COc1cc(C(=O)NS(=O)(=O)c2ccccc2OC)ccc1Cn1cccn1 [Compound 26, N-(2-methoxyphenyl)sulfonyl-3-methoxy-4-(pyrazol-1-ylmethyl)benzamide]
19 nM	COc1cccc(OC)c1S(=O)(=O)NC(=O)c1ccc(Cn2cccn2)c(C2CC2)c1 [Compound 28, 4-((1H-pyrazol-1-yl)methyl)-3-cyclopropyl-N-((2,6-dimethoxyphenyl)sulfonyl)benzamide]
10 nM	COc1cc(C(=O)NS(=O)(=O)c2cc(C3CC3)ccc2OC)ccc1Cn1cccn1 [Compound 29, 4-((1H-pyrazol-1-yl)methyl)-N-((5-cyclopropyl-2-methoxyphenyl)sulfonyl)-3-methoxybenzamide]
